# Tests used:
# Homo sapiens [1] = species: Homo sapiens; assay: In vitro inhibition of human platelet aggregation induced by thromboxane mimetic U-46,619 at 0.3 uM.; type: functional, organism-based
# [2] = target: T1, Proteinase-activated receptor 1 (Homo sapiens, UniProt P25116); assay: In vitro displacement of [3H]S-(p-F-Phe)-homoarginine-K Y-NH2 (at a concentration of 10 nM) from thrombin receptor (PAR-1) on the membranes of CHRF-288-11 cells
# T1 sequence (P25116 whole entry): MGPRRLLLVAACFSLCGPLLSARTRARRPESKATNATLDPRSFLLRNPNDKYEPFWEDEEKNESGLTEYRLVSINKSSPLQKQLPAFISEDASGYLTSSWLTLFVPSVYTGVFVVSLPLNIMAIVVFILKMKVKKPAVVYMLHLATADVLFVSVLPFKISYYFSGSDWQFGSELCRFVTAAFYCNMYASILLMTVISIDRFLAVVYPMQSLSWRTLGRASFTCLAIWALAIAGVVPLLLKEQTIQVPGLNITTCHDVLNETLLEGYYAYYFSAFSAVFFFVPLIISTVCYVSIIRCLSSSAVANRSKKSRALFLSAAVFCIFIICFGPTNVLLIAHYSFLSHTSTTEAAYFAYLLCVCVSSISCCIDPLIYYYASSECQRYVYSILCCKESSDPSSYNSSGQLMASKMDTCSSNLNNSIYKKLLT
# Homo sapiens [3] = species: Homo sapiens; assay: In vitro inhibition of human platelet aggregation induced by 3 ug/ml collagen.; type: functional
# Homo sapiens [4] = species: Homo sapiens; assay: In vitro inhibition of human platelet aggregation induced by collagen (at a concentration of 3 ug/mL); IA means Inactive at 50 uM; type: functional
# Homo sapiens [5] = species: Homo sapiens; assay: In vitro inhibition of human platelet aggregation induced by thromboxane mimetic U-46,619 (at a concentration of 0.3 uM); type: functional
# Homo sapiens [6] = species: Homo sapiens; assay: In vitro inhibition of human platelet aggregation induced by SFLLRN-NH2 (at a concentration of 2 uM); IA means Inactive at 50 uM; type: functional
# Homo sapiens [7] = species: Homo sapiens; assay: In vitro inhibition of human platelet aggregation induced by thromboxane mimetic U-46,619 (at a concentration of 0.3 uM concentration; type: functional
# Homo sapiens [8] = species: Homo sapiens; assay: In vitro inhibition of human platelet aggregation induced by collagen (at a concentration of 3 ug/mL); In active at 50 uM concentration; type: functional
SMILES,IC50 (Homo sapiens [1]),IC50 [2],IC50 (Homo sapiens [3]),IC50 (Homo sapiens [4]),IC50 (Homo sapiens [5]),IC50 (Homo sapiens [6]),IC50 (Homo sapiens [7]),IC50 (Homo sapiens [8])
Cc1ccccc1Cn1cc(CN2CCCC2)c2ccc(NC(=O)N[C@@H](Cc3ccc([N+](=O)[O-])cc3)C(=O)N[C@@H](CCCN=C(N)N)C(=O)NCc3ccccc3)cc21,Not Active,0.8 µM,20.6 µM,,,,,
COc1ccc(C[C@H](NC(=O)Nc2ccc3c(CN4CCCC4)cn(Cc4ccc(F)cc4)c3c2)C(=O)N[C@@H](CCCN=C(N)N)C(=O)NCc2ccccc2)cc1,Not Active,2.2 µM,,Not Active,,,,
COc1ccc(C[C@H](NC(=O)Nc2ccc3c(CN4CCCC4)cn(Cc4ccc(F)cc4)c3c2)C(=O)N[C@@H](CCCN=C(N)N)C(=O)NCCCc2ccccc2)cc1,,,16.1 µM,,21.4 µM,,,
COc1ccc(C[C@H](NC(=O)Nc2ccc3c(CN4CCCCC4)cn(Cc4ccc(OC(F)(F)F)cc4)c3c2)C(=O)N[C@@H](CCCNC(=N)N)C(=O)NCC2CCCCC2)cc1,,5.6 µM,33.1 µM,,43.5 µM,,,
COC(=O)c1ccc(Cn2cc(CN3CCCC3)c3ccc(NC(=O)N[C@@H](Cc4ccc(OC)cc4)C(=O)N[C@@H](CCCN=C(N)N)C(=O)NCC4CCCCC4)cc32)cc1,Not Active,3.5 µM,,Not Active,,Not Active,,
COc1ccc(C[C@H](NC(=O)Nc2ccc3c(CN4CCCCC4)cn(Cc4ccc(F)cc4)c3c2)C(=O)N[C@@H](CCCN=C(N)N)C(=O)NCC2CCCCC2)cc1,,,26.1 µM,,26.2 µM,,,
COc1ccc(C[C@H](NC(=O)Nc2ccc3c(CN4CCCC4)cn(Cc4ccc(OC(F)(F)F)cc4)c3c2)C(=O)N[C@@H](CCCNC(=N)N)C(=O)NCC2CCCCC2)cc1,,2.5 µM,40.4 µM,,33 µM,,,
N=C(N)NCCC[C@H](NC(=O)[C@H](Cc1ccc([N+](=O)[O-])cc1)NC(=O)Nc1ccc2c(CN3CCCC3)cn(Cc3ccc(F)cc3)c2c1)C(=O)NCc1ccccc1,Not Active,1.1 µM,16.5 µM,,,,,
COc1ccc(C[C@H](NC(=O)Nc2ccc3c(CN4CCCCC4)cn(Cc4cccc(C)c4)c3c2)C(=O)N[C@@H](CCCNC(=N)N)C(=O)NCC2CCCCC2)cc1,,3.2 µM,27.5 µM,,36.3 µM,,,
N=C(N)NCCC[C@H](NC(=O)[C@H](Cc1ccc(F)c(F)c1)NC(=O)Nc1ccc2c(CN3CCCC3)cn(Cc3c(Cl)cccc3Cl)c2c1)C(=O)NCc1ccccc1,Not Active,0.82 µM,,Not Active,,,,
COc1ccc(C[C@H](NC(=O)Nc2ccc3c(CN4CCCC4)cn(Cc4ccccc4Cl)c3c2)C(=O)N[C@@H](CCCN=C(N)N)C(=O)NCCCc2ccccc2)cc1,,0.38 µM,12 µM,,44.4 µM,,,
COc1ccc(C[C@H](NC(=O)Nc2ccc3c(CN4CCCCC4)cn(Cc4ccccc4C)c3c2)C(=O)N[C@@H](CCCN=C(N)N)C(=O)NCCCc2ccccc2)cc1,Not Active,0.73 µM,13 µM,,,,,
CCN(CC)Cc1cn(Cc2ccccc2C)c2cc(NC(=O)N[C@@H](Cc3ccc(OC)cc3)C(=O)N[C@@H](CCCN=C(N)N)C(=O)NCCCc3ccccc3)ccc12,Not Active,2.5 µM,17 µM,,,,,
COc1ccc(C[C@H](NC(=O)Nc2ccc3c(CN4CCCC4)cn(Cc4ccccc4C)c3c2)C(=O)N[C@@H](CCCN=C(N)N)C(=O)NCCCc2ccccc2)cc1,,1 µM,11.9 µM,,44.2 µM,,,
COc1ccc(C[C@H](NC(=O)Nc2ccc3c(CN4CCCC4)cn(Cc4ccc(F)cc4)c3c2)C(=O)N[C@@H](CCCN=C(N)N)C(=O)NCC2CCCCC2)cc1,,2.6 µM,37.6 µM,,12.5 µM,,,
CCN(CC)Cc1cn(Cc2cccc(C)c2)c2cc(NC(=O)N[C@@H](Cc3ccc(OC)cc3)C(=O)N[C@@H](CCCN=C(N)N)C(=O)NCCCc3ccccc3)ccc12,Not Active,2.6 µM,10.2 µM,,,,,
Cc1ccccc1Cn1cc(CN2CCCC2)c2ccc(NC(=O)N[C@@H](Cc3ccc(C#N)cc3)C(=O)N[C@@H](CCCN=C(N)N)C(=O)NCc3ccccc3)cc21,Not Active,6.4 µM,25.9 µM,,,,,
COc1ccc(C[C@H](NC(=O)Nc2ccc3c(CN4CCC4)cn(Cc4ccc(F)cc4)c3c2)C(=O)N[C@@H](CCCN=C(N)N)C(=O)NCc2ccccc2)cc1,Not Active,,,Not Active,,,,
CCN(CC)Cc1cn(Cc2ccc(F)cc2)c2cc(NC(=O)N[C@@H](Cc3ccc(OC)cc3)C(=O)N[C@@H](CCCN=C(N)N)C(=O)NCC3CCCCC3)ccc12,,3.1 µM,25.8 µM,,39.5 µM,,,
COc1ccc(C[C@H](NC(=O)Nc2ccc3c(CN4CCCC4)cn(Cc4c(Cl)cccc4Cl)c3c2)C(=O)N[C@@H](CCCNC(=N)N)C(=O)NCc2ccccc2)cc1 [RWJ-54003],Not Active,1.3 µM,46.3 µM,,,,,

# Results, then the compound that gave them:
IC50 (Homo sapiens [1]),IC50 [2],IC50 (Homo sapiens [3]),IC50 (Homo sapiens [4]),IC50 (Homo sapiens [5]),IC50 (Homo sapiens [6]),IC50 (Homo sapiens [7]),IC50 (Homo sapiens [8]),SMILES
Not Active,1.8 µM,,Not Active,,,,,NC(=O)CCC(NC(=O)[C@H](Cc1ccc(F)c(F)c1)NC(=O)Nc1ccc2c(CN3CCCC3)cn(Cc3c(Cl)cccc3Cl)c2c1)C(=O)NCc1ccccc1 (some centres undefined)
Not Active,0.92 µM,36.9 µM,,,,,,NCC(NC(=O)[C@H](Cc1ccc(F)c(F)c1)NC(=O)Nc1ccc2c(CN3CCCC3)cn(Cc3c(Cl)cccc3Cl)c2c1)C(=O)NCc1ccccc1 (some centres undefined)
Not Active,,,Not Active,,,,,N#Cc1ccc(C[C@H](NC(=O)Nc2ccc3c(CN4CCCC4)cn(Cc4c(Cl)cccc4Cl)c3c2)C(=O)N[C@@H](CCCNC(=N)N)C(=O)NCc2ccccc2)cc1
Not Active,1.3 µM,34 µM,,,,,,O=C(Nc1ccc2c(CN3CCCC3)cn(Cc3c(Cl)cccc3Cl)c2c1)N[C@@H](Cc1ccc(F)c(F)c1)C(=O)NC(Cc1c[nH]cn1)C(=O)NCc1ccccc1 (some centres undefined)
Not Active,0.24 µM,,Not Active,,,,,NC(=O)NCCCC(NC(=O)[C@H](Cc1ccc(F)c(F)c1)NC(=O)Nc1ccc2c(CN3CCCC3)cn(Cc3c(Cl)cccc3Cl)c2c1)C(=O)NCc1ccccc1 (some centres undefined)
Not Active,11.2 µM,,Not Active,,,,,CSCCC(NC(=O)[C@H](Cc1ccc(F)c(F)c1)NC(=O)Nc1ccc2c(CN3CCCC3)cn(Cc3c(Cl)cccc3Cl)c2c1)C(=O)NCc1ccccc1 (some centres undefined)
,0.44 µM,,,,,Not Active,Not Active,NCCC(NC(=O)[C@H](Cc1ccc(F)c(F)c1)NC(=O)Nc1ccc2c(CN3CCCC3)cn(Cc3c(Cl)cccc3Cl)c2c1)C(=O)NCc1ccccc1 (some centres undefined)
,0.3 µM,21.3 µM,,41.9 µM,,,,NCCCC[C@H](NC(=O)[C@H](Cc1ccc(F)c(F)c1)NC(=O)Nc1ccc2c(CN3CCCC3)cn(Cc3c(Cl)cccc3Cl)c2c1)C(=O)NCc1ccccc1
Not Active,0.5 µM,15.7 µM,,,,,,NCCC[C@H](NC(=O)[C@H](Cc1ccc(F)c(F)c1)NC(=O)Nc1ccc2c(CN3CCCC3)cn(Cc3c(Cl)cccc3Cl)c2c1)C(=O)NCc1ccccc1

# Reference: ChEMBL document CHEMBL1133903, “Thrombin receptor (PAR-1) antagonists. Solid-phase synthesis of indole-based peptide mimetics by anchoring to a secondary amide” (Bioorg Med Chem Lett, 2001)
